Source: patent US20260242405A1, “N-DERIVATIZED SIALIC ACIDS AND RELATED SIALOSIDES” (THE REGENTS OF THE UNIVERSITY OF CALIFORNIA, priority 2023, published 2026)
Where two headings read alike, the source gives them in different places.

Key:
[1] = molecular target: N1-BR18 (IAV neuraminidase) (Influenza A virus, UniProt A0A0X9QTS2); test: Fluorescence-based inhibition assay (substrate Neu5Acα2-3GalβMU, β-galactosidase coupled); assay type: biochemical, influenza A virus A/Brisbane/02/2018 (H1N1); conditions: for Percentage inhibition against N1-BR18 (IAV) / percentage inhibition against N1-BR18: inhibitor 8.0 μM; for Percentage inhibition against N1-BR18 (IAV): substrate Neu5Acα2-3GalβMU 8.0 μM; for IC50: fluorescence-based inhibition assay, Example 2, Table 3, read-out: IC50 against N1-BR18
[2] = molecular target: NB-Aus21 (IBV neuraminidase) (Influenza B virus, UniProt A0A1X9RX69); test: biochemical; parameters: species or system influenza B virus B/Austria/1359417/2021; conditions: inhibitor 8.0 μM
[3] = molecular target: T1, hNEU2 (human cytosolic sialidase) (Homo sapiens, UniProt Q9Y3R4); test: Fluorescence-based inhibition assay (substrate Neu5Acα2-3GalβMU, β-galactosidase coupled); assay type: biochemical; conditions: inhibitor 8.0 μM
T1 construct: made in house

[4] = test system: N1-Vic19 (IAV neuraminidase); test: as above; assay type: biochemical, influenza A virus A/Victoria/2570/2019 (H1N1); conditions: inhibitor 8.0 μM; Example 3, Table 4
[5] = molecular target: N2-Dar21 (IAV neuraminidase) (Influenza A virus, UniProt A0A193ACB1); test: as above; assay type: biochemical, influenza A virus A/Darwin/9/2021 (H3N2); conditions: for percentage inhibition against N2-Dar21: inhibitor 8.0 μM, Example 3, Table 4
[6] = molecular target: N2-Kan17 (IAV neuraminidase) (Influenza A virus, UniProt A0A193ACB1); test: as above; assay type: biochemical, influenza A virus A/Kansas/14/2017 (H3N2); conditions: for percentage inhibition against N2-Kan17: inhibitor 8.0 μM, Example 3, Table 4
[7] = molecular target: NB-Phu13 (IBV neuraminidase) (Influenza B virus, UniProt A0A1S5RAG6); test: as above; assay type: biochemical, influenza B virus B/Phuket/3073/2013; conditions: for percentage inhibition against NB-Phu13: inhibitor 8.0 μM, Example 3, Table 4
[8] = molecular target: T2, PmST1 WT (sialidase activity of α2-3-sialyltransferase 1 in the presence of CMP) (Pasteurella multocida, UniProt Q15KI8); test: biochemical; conditions: for percent inhibition against PmST1 WT: inhibitor 8.0 μM, in the presence of CMP, Table 5
T2 construct: made in house

SpNanA (sialidase) = molecular target: T3, SpNanA (sialidase) (Streptococcus pneumoniae, UniProt P62575); test: Fluorescence-based inhibition assay (substrate Neu5Acα2-3GalβMU, β-galactosidase coupled); assay type: biochemical; conditions: for percent inhibition against SpNanA: inhibitor 8.0 μM, Table 5
T3 construct: made in house

[9] = substrate Neu5Acα2-3GalβMU 8.0 μM, Example 2, Table 2
[10] = read-out: Percentage inhibition against N1-BR18 (IAV), inhibitor 8.0 μM, substrate Neu5Acα2-3GalβMU 8.0 μM, Example 2, Table 2
[11] = substrate Neu5Acα2-3GalβMU 8.0 μM, Example 2, Table 2, read-out: Percentage inhibition against NB-Aus21 (IBV)
[12] = substrate Neu5Acα2-3GalβMU 8.0 μM, Example 2, Table 2, read-out: Percentage inhibition against hNEU2

T1 sequence (Q9Y3R4 whole entry): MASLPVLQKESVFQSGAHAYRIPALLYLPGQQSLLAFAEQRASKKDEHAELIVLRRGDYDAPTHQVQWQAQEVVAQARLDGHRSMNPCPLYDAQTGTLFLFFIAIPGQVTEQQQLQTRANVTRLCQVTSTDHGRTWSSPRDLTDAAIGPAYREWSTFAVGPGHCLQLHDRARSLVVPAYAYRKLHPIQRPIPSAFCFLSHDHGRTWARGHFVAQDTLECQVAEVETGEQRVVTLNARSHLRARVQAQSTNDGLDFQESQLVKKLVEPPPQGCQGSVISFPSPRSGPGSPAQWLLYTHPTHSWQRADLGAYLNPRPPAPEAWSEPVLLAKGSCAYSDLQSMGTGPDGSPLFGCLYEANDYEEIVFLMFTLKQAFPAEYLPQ

Question: What does the source list for `CC(=O)N[C@H]1[C@H]([C@H](O)[C@H](O)CO)OC(O)(C(=O)O)C[C@@H]1NC(=N)N` (some centres unmarked) [4-Guanidino-Neu5Ac (9), 4-guanidino-Neu5Ac]?
Answer: Percentage inhibition against N1-BR18 (IAV) ([1]; Example 2, Table 2): 76.4 ± 4.9%; Percentage inhibition against NB-Aus21 (IBV) [2, 9]: 51.0 ± 0.1%; Percentage inhibition against hNEU2 [3, 9]: 3.3 ± 0.6%

Question: What does the source list for `CC(=O)N[C@H]1[C@H]([C@H](O)[C@H](O)CO)OC(O)(C(=O)O)C[C@@H]1N=[N+]=[N-]` (some centres unmarked) [4N3Neu5Ac (7), 4-azido-Neu5Ac]?
Answer: Percentage inhibition against N1-BR18 (IAV) ([1]; Example 2, Table 2): 0.0 ± 4.5%; Percentage inhibition against NB-Aus21 (IBV) [2, 9]: 37.5 ± 4.1%; Percentage inhibition against hNEU2 [3, 9]: 3.0 ± 0.8%

Question: `CC(=O)N[C@H]1[C@H]([C@H](O)[C@H](O)CO)OC(C(=O)O)=C[C@@H]1NC(C)=O` [4NAcNeu5Ac2en] was tested. Which “Percentage inhibition against N1-BR18 (IAV)” value ([1]; Example 2, Table 2) did it give?
Answer: 0.0 ± 2.5%

Question: And the “percentage inhibition against N1-BR18” value ([1]; Example 3, Table 4)?
Answer: 2.5%

Question: What about the “Percentage inhibition against NB-Aus21 (IBV)” value [2, 9] of the same compound?
Answer: 21.3 ± 0.2%

Question: And the “percentage inhibition against NB-NB-Aus21” value ([2]; Example 3, Table 4)?
Answer: 1.4%

Question: What about the “Percentage inhibition against hNEU2” value [3, 9] of the same compound?
Answer: 2.1 ± 2.5%

Question: What about the “percent inhibition against hNEU2” value ([3]; Table 5) of the same compound?
Answer: 2.1 ± 2.5%

Question: And the “percentage inhibition against N1-Vic19” value [4]?
Answer: 0.7%

Question: And the “percentage inhibition against N2-Dar21” value [5]?
Answer: 2.4%

Question: What about the “percentage inhibition against N2-Kan17” value [6] of the same compound?
Answer: 6.1%

Question: And the “percentage inhibition against NB-Phu13” value [7]?
Answer: 0.6%

Question: What about the “percent inhibition against PmST1 WT” value [8] of the same compound?
Answer: 7.1 ± 0.7%

Question: And the “percent inhibition against SpNanA” value (SpNanA (sialidase))?
Answer: 0.5 ± 6.5%

Question: For `CC(=O)N[C@H]1[C@H]([C@H](O)[C@H](O)CO)OC(O)(C(=O)O)C[C@@H]1NC(C)=O` (some centres unmarked) [4NAcNeu5Ac (3), 4NAcNeu5Ac], which “Percentage inhibition against N1-BR18 (IAV)” value ([1]; Example 2, Table 2) is on record?
Answer: 11.5 ± 22.7%

Question: What about the “Percentage inhibition against NB-Aus21 (IBV)” value [2, 9] of the same compound?
Answer: 27.9 ± 10.1%

Question: What about the “Percentage inhibition against hNEU2” value [3, 9] of the same compound?
Answer: 3.0 ± 1.0%

Question: For `CC(=O)NC1C[C@](OCC2O[C@@H](Oc3ccc([N+](=O)[O-])cc3)C(O)C(O)[C@H]2O)(C(=O)O)OC([C@H](O)[C@H](O)CO)[C@@H]1NC(C)=O` (some centres unmarked) [4NAcNeu5Acα2-6GalβpNP], which inhibition at 8 µM [1, 10] is on record?
Answer: 0%

Question: And the inhibition at 8 µM ([1]; read-out: percentage inhibition against N1-BR18, inhibitor 8.0 μM, Example 3, Table 4)?
Answer: 0%

Question: What about the inhibition at 8 µM [2, 11] of the same compound?
Answer: 21.5 ± 1.7%

Question: What about the inhibition at 8 µM ([2]; Example 3, Table 4, read-out: percentage inhibition against NB-NB-Aus21) of the same compound?
Answer: 0.4%

Question: And the inhibition at 8 µM [3, 12]?
Answer: 0%

Question: And the inhibition at 8 µM ([3]; Table 5, read-out: percent inhibition against hNEU2)?
Answer: 0%

Question: What about the “percentage inhibition against N1-Vic19” value [4] of the same compound?
Answer: 0.4%

Question: What about the inhibition at 8 µM ([5]; read-out: percentage inhibition against N2-Dar21) of the same compound?
Answer: 0.4%

Question: And the inhibition at 8 µM ([6]; read-out: percentage inhibition against N2-Kan17)?
Answer: 1%

Question: And the inhibition at 8 µM ([7]; read-out: percentage inhibition against NB-Phu13)?
Answer: 1.5%

Question: What about the inhibition at 8 µM ([8]; read-out: percent inhibition against PmST1 WT) of the same compound?
Answer: 18.6 ± 4%

Question: And the inhibition at 8 µM (SpNanA (sialidase); read-out: percent inhibition against SpNanA)?
Answer: 4.2 ± 0.8%

Question: What does the source list for `CC(=O)N[C@H]1[C@H]([C@H](O)[C@H](O)CO)OC(C(=O)O)=C[C@@H]1N` [4NH2Neu5Ac2en, 4-amino-2,3-dehydro-N-acetylneuraminic acid, reference compound]?
Answer: IC50 ([1]; listed as 4NH2Neu5 Ac2en): 490 nM; IC50 [1]: 490 nM; Percentage inhibition against N1-BR18 (IAV) ([1]; Example 2, Table 2): 93.6 ± 0.2%; percentage inhibition against N1-BR18 ([1]; Example 3, Table 4): 94.9%; Percentage inhibition against NB-Aus21 (IBV) [2, 9]: 98.3 ± 0.1%; percentage inhibition against NB-NB-Aus21 ([2]; Example 3, Table 4): 97.4%; Percentage inhibition against hNEU2 [3, 9]: 0.0 ± 6.6%; percent inhibition against hNEU2 ([3]; Table 5): 0.0 ± 6.6%; percentage inhibition against N1-Vic19 [4]: 95.9%; percentage inhibition against N2-Dar21 [5]: 94.6%; percentage inhibition against N2-Kan17 [6]: 91.3%; percentage inhibition against NB-Phu13 [7]: 91.2%; percent inhibition against PmST1 WT [8]: 9.8 ± 1.2%; percent inhibition against SpNanA (SpNanA (sialidase)): 7.9 ± 2.6%

Question: Which results are given for `CC(=O)N[C@H]1[C@H]([C@H](O)[C@H](O)CO)OC(O)(C(=O)O)C[C@@H]1N` (some centres unmarked) [4NH2Neu5Ac (8), 4-amino-4-deoxy-N-acetylneuraminic acid]?
Answer: inhibition at 8 µM [1, 10]: 28.6 ± 24.5%; inhibition at 8 µM [2, 11]: 41.8 ± 2.8%; inhibition at 8 µM [3, 12]: 2.2 ± 1.2%

Question: What does the source list for `CC(=O)N[C@H]1[C@H]([C@H](O)[C@H](O)CO)OC(O)(C(=O)O)C[C@@H]1O` (some centres unmarked) [Neu5Ac (1), N-Acetylneuraminic acid, reference compound]?
Answer: inhibition at 8 µM [1, 10]: 5.2 ± 5.3%; inhibition at 8 µM [2, 11]: 20.2 ± 2.6%; inhibition at 8 µM [3, 12]: 1.7 ± 0.5%
